According to patent US10265298B2, “Method of increasing the bioavailability of silybin” (Macau University of Science and Technology, priority 2017, dated 2019):

Assays:
Caco-2 cells = assay: Glucuronidation of silybin in Caco-2 cells (LC-MS peak area of silybin glucuronides); type: in vitro ADME, human; details: silybin 10 μM, test compound 20 μM co-incubation
Protocol: The analysis of silybin and total concentrations of glucuronides and sulfates was performed on an Agilent HP 1100 LC-MS system (Agilent, CA). A Waters ACQUITY UPLC® BEH C18 Column (1.7 μm, 2.1×50 mm, Waters Corp., Ireland) was used for detection with a C18 Security Guard cartridge (4×2.0 mm i.d., Phenomenex, Torrance, Calif.). Silybin A and silybin B were well separated using optimized gradient elution with methanol (mobile phase B) and 0.1% formic acid in water (mobile phase A) as mobile phase at a flow rate of 0.4 ml/min with a run time of 10 minutes. The gradient employed was as follows (time: mobile phase B percentage): 0 min: 25%, 6 minutes: 40%, 6.5 minutes: 25%.
MS parameters including: capillary voltage, −4000 V; nebulizer pressure, 40 pounds per square inch (psi); drying gas, 9 liters per minute (L/min); drying gas temperature, 325° C.; fragment voltage, 35 volts; dwell time, 200 milliseconds (ms); scan mode, selective ion monitoring (SIM) with [M-H]− for silybin (mass-to-charge ratio (m/z) 481), mono-glucuronide (m/z 657), and NG (m/z 271), respectively. LC-MS data were obtained by Agilent ChemStation Software.
Silybin is primarily metabolized to glucuronide (about 55%) and sulfate (about 28%) conjugates in human plasma after oral administration. To examine whether the co-incubation of flavonoids could affect the conjugation of silybin, the peak area of silybin glucuronides was measured by LC-MS (FIG. 6). Identification of glucuronides in the samples was based on their MS in-source fragmentations (m/z 657).

MDR1 (P-gp) = MDR1 (P-gp) (Homo sapiens, UniProt P08183); assay: cell-based
Sequence of MDR1 (P-gp) (P08183 whole entry): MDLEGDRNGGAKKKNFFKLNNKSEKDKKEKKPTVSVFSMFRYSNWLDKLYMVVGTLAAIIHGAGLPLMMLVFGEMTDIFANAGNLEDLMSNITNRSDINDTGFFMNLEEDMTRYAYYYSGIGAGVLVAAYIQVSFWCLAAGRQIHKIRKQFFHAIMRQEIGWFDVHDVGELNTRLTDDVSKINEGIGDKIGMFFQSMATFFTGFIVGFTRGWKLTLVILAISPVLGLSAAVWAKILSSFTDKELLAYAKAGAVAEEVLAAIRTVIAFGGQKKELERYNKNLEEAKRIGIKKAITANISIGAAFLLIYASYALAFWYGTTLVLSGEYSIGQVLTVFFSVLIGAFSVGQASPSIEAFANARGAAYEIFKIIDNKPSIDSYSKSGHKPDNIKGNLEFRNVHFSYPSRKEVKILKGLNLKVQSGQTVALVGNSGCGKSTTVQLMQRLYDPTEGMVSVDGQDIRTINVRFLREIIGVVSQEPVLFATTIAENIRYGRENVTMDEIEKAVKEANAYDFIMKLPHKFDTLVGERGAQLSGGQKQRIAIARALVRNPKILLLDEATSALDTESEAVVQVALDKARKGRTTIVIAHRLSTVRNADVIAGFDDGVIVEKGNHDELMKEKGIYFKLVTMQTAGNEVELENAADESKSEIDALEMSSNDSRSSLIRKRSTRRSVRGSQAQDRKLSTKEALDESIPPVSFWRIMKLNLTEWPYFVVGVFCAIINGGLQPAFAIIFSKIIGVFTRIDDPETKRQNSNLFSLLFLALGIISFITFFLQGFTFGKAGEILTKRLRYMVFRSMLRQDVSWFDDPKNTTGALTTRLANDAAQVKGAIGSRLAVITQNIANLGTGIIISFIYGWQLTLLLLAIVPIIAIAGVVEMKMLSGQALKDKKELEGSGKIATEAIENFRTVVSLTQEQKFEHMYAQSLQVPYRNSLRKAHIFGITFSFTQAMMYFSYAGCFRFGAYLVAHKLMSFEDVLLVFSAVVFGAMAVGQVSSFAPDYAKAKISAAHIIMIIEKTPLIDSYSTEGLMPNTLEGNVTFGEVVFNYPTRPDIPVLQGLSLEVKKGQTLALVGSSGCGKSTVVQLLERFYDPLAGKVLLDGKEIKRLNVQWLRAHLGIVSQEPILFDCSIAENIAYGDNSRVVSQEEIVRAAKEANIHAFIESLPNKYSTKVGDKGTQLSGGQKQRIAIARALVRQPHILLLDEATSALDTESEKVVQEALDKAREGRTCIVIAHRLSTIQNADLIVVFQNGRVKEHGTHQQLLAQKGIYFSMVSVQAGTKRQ
Protocol: (§1) Parental Madin-Darby canine kidney II (MDCKII), multi-drug resistance gene 1-Madin-Darby canine kidney II (MDR1-MDCKII), breast cancer resistance protein-Madin-Darby canine kidney II (BCRP-MDCKII), and multi-drug resistance protein 2-Madin-Darby canine kidney II (MRP2-MDCKII) cells were kindly provided by the Netherlands Cancer Institute (Amsterdam, Netherlands) and frozen at −80° C. The MDCKII cells were cultured at 37° C./5% CO2 in Dulbecco's modified Eagle's medium supplemented with 10% fetal bovine serum, 1% nonessential amino acids, and 2% penicillin-streptomycin. The cells were seeded on transwell inserts (Corning Inc.) at a density of 2.0×10^5 cells/cm^2 and grown for 4-5 days to form confluent monolayers.
(§2) Bidirectional transport assays in human colorectal adenocarcinoma 2 (Caco-2) and Madin-Darby canine kidney II (MDCK II) was carried out by dosing substrates in assay buffer to either the apical chamber (A-to-B) or the basolateral chamber (B-to-A); cells were then incubated at 37° C. with shaking at 50 rotations per minute (rpm), and 100 μl samples were collected at 30, 60, 90, 120 and 180 minutes from the basolateral chamber to study the drug transport of AP to BL, or apical chamber to study the drug transport of BL to AP. Cell monolayers were then washed twice with ice-cold assay buffer and lysed with methanol on ice for 10 minutes. For inhibition studies, Caco-2 or MDCK II cell monolayers were pre-incubated with an inhibitor in both apical and basolateral chambers for 30 minutes, and bidirectional transport of 10 μM silybin was conducted in the absence (control) or presence of the inhibitor in both chambers. […] For fluorescence intensity detection, samples collected from AP or BL side were immediately detected in 96 well black plate by Microplate ultraviolet-visible spectroscopy (UV/VIS) spectrophotometer (TECAN infinite M200 PRO, Männedorf, Switzerland). In all cases, each determination was performed in triplicate.
(§3) The apparent permeability coefficients (Papp) were calculated as Papp=dQ/dt×1/(C“0”A) where dQ/dt (mM/sec) is the rate of permeation of the drug across the cells, C0 (millimolar (mM)) is the donor compartment concentration at time zero and A (cm^2) is the area of the cell monolayer. C0 is obtained from analysis of the dosing solution at the start experiment. Efflux Ratio (ER)=Papp (B to A)/Papp (A to B), while Papp (B−A) is the Papp value measured in the B to A direction, and Papp (A−B) is the Papp value measured in the A to B direction. 1.5 Preparation of Rat Sandwich-Cultured Hepatocytes
(§4) (*, P<0.05;**, P<0.01; ***, P<0.001 vs absence of any inhibitor. n=3).
as §4

MRP2 = MRP2 (Homo sapiens, UniProt Q92887); assay: cell-based; details: for efflux ratio of CDCFDA in the presence of inhibitor: dog, 180 min
Sequence of MRP2 (Q92887 whole entry): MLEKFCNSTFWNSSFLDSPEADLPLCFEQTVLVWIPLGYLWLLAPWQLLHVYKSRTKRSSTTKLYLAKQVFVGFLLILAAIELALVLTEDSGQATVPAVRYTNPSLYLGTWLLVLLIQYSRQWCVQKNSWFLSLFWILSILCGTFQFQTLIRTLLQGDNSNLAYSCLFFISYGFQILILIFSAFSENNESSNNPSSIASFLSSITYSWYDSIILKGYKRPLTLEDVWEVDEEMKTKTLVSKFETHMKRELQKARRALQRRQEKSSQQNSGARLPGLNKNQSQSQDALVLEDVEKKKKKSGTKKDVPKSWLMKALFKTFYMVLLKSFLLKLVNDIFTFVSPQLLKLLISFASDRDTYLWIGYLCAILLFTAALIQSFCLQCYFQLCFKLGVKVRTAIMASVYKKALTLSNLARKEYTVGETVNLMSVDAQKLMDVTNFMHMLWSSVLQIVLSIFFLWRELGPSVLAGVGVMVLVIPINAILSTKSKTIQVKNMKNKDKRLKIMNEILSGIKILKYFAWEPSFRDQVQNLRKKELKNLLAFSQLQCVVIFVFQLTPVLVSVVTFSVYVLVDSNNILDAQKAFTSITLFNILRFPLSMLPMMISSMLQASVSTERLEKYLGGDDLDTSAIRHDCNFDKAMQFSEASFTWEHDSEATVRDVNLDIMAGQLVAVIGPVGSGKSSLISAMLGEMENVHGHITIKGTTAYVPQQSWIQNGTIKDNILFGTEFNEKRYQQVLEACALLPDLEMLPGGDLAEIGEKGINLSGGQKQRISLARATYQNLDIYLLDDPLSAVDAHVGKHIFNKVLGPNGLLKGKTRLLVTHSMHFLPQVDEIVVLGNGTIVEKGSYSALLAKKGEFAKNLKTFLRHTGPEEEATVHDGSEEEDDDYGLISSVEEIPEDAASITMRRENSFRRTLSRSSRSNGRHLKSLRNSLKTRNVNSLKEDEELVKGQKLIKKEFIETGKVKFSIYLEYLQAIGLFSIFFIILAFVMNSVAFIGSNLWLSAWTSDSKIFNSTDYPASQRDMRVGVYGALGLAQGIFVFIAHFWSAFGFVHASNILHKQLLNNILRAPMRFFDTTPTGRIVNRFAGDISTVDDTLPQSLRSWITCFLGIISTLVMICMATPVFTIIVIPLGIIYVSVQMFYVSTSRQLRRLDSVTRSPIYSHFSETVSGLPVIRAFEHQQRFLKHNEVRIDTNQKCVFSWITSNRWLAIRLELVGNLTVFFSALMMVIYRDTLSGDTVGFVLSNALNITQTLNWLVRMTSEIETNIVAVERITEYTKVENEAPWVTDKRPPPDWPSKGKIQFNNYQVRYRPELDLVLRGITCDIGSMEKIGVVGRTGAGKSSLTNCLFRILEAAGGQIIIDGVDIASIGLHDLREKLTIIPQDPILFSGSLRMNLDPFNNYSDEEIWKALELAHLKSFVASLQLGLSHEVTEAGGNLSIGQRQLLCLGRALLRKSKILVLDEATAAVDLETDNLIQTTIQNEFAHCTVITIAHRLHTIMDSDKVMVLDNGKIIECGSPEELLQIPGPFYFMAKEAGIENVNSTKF
Protocol: as §1, §2, §3, §4, §4

BCRP = target: T1, BCRP (Homo sapiens, UniProt Q9UNQ0); assay: Inhibition of pheophorbide A (Ph A) efflux in MDCKII-BCRP cell monolayers; details: for mean efflux ratio of Ph A in the presence of inhibitor: dog, 180 min
T1 sequence (Q9UNQ0 1-655): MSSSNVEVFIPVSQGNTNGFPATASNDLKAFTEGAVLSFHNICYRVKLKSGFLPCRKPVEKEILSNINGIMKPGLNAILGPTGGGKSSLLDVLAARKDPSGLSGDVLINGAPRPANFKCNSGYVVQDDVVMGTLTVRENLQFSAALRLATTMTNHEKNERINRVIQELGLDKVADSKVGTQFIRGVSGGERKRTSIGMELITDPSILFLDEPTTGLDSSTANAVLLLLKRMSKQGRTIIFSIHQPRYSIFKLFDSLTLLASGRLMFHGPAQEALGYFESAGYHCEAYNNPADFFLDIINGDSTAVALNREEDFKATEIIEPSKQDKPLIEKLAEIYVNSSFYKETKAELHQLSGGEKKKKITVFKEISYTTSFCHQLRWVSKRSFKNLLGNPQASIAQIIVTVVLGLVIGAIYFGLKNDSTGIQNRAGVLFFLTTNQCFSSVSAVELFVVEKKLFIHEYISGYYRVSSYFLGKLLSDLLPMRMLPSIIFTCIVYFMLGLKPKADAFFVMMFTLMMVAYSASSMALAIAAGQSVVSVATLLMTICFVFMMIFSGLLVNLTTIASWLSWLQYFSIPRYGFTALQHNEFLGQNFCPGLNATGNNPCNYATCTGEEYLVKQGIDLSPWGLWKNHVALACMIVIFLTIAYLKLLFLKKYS
Protocol: as §1, §2, §3, §4, §4

Structure (SMILES) | effect on glucuronide metabolites / glucuronide conjugation of silybin (Caco-2 cells) | IC50 (MDR1 (P-gp)) | IC50 (MRP2) | efflux ratio of CDCFDA in the presence of inhibitor (MRP2) | IC50 (BCRP) | mean efflux ratio of Ph A in the presence of inhibitor (BCRP)
O=c1cc(-c2ccccc2)oc2cc(O)c(O)c(O)c12 [baicalein] | almost undetected | 20.6 µM | 21.2 µM | 1.46 | 22.1 µM | 1.48
COc1ccc(-c2cc(=O)c3c(OC)c(OC)c(OC)c(OC)c3o2)cc1 [tangeretin] | did not significantly inhibit the conjugation | 6.88 µM | 8.84 µM | 1.54 | 8.88 µM | 1.18
